From patent US20150051203A1, “TRIAZOLE DERIVATIVES AS HSP90 INHIBITORS” (Synta Pharmaceuticals Corp., priority 2012, published 2015) come the findings set out here.

SMILES strings stand for the structures. Like-named read-outs stand apart in the source and are kept apart here.

For data set [1], the system named is c-Kit. Put plainly: c-Kit degradation in HEL92.1.7 cells (FACS-based degradation assay). The settings on record: treated about 18 h. The class given is cell-based. As to the method:
Two leukemia cell lines, HEL92.1.7 and Kasumi-1, were used for testing c-Kit degradation induced by Hsp90 inhibitors of the invention. The cells (3×10^5 per well) were treated with 17AAG (0.5 μM), or a compound of the invention for about 18 h. The cells were collected and centrifuged (SORVALL RT 6000D) at 1200 rpm for 5 min. The supernatants were discarded, and the cells were washed one time with 1×PBS. After centrifugation the cells were stained with FITC conjugated c-Kit antibody (MBL International, Cat# K0105-4) in […] 1×PBS at 4° C. for 1 h. The samples were read and analyzed with FACSCalibur flow cytometer (Becton Dicknson).
c-Kit, a tyrosine kinase receptor and one of the Hsp90 client proteins, was selected and used in a FACS-based degradation assay.

Data set [2] is described as follows: Exploratory small molecule PK study in rats. It counts as in vivo, male Sprague-Dawley rats. Set-up: AUClast: unit not given here. The settings on record: rat; for half-life: male, Sprague-Dawley, plasma, read-out: T½ (converted); for F: PO 25 mg/Kg D5W vs IV 5 mg/Kg DPD. As to the method:
PK studies were conducted in male Sprague-Dawley rats. One group was dosed by IV (n=2) and another group was dosed orally (n=3). Blood samples were collected in lithium heparin coated microfuge tubes at 5 (IV only), 15, 30 min, 1, 3, 4, 6, 8, 24 h post dose. Samples were then centrifuged under refrigerated conditions and plasma was collected for analysis.
A solvent-based protein precipitation procedure was used to measure the concentration of each compound in plasma and/or whole blood. Samples were analyzed with an Agilent 1100 HPLC (Santa Clara, Calif.) interfaced to an API 4000 tandem mass spectrometer (Applied Biosystems, Foster City, Calif.) using a Synergy, Hydro-RP column (4 μm, 2×50 mm; Phenomenex, Torrance, Calif.) at a flow rate of 0.5 ml/min. Mobile phase consisted of 10 mM ammonium acetate in water (A) and 10 mM ammonium acetate in 95/5 (v/v) methanol/water (B). Total run time was 5 min with the gradient elution. […] All standard curves were fit to a quadratic equation with a weighing factor of 1/(concentration)^2 to calculate compound concentrations.

Data set [3] concerns Her2. Put plainly: Her2 degradation in BT-474 cells, ICW (LI-COR Odyssey imaging). The class given is cell-based, Human. The settings on record: BT474 cells, 24 hours. As to the method: All experiments were performed on day 1 after cell passage.
BT-474 cells were plated in the interior 60 wells of a 96 well black clear bottom plate (20,000 cells/well) in DMEM medium, with DMEM media in the surrounding 36 wells, and incubated at 37° C. with 5% CO2 overnight. On the second day, concentration response curve source plates were produced (10 point, 3-fold dilution of compounds in DMSO) followed by a 1:30 dilution in an intermediate dilution plate containing DMEM. Compound was transferred from the intermediate plate to the cell plate at a dilution of 1:10. The cells were incubated at 37° C. with 5% CO2 for 24 hours.
Cells were fixed in 4% phosphate buffered paraformaldehyde for 30 minutes at room temperature and then permeabilized by washing five times with 0.1% Triton X-100 in PBS for 5 minutes at room temperature on a shaker. Cells were blocked with Odyssey Blocking Buffer (LI-COR, #927-40000) on a shaker at room temperature for 1.5 hours followed by incubation with Her2 antibody (CST, #2165) diluted 1:400 in blocking buffer overnight on a shaker at 4° C. Cells were washed five times with 0.1% Tween-20 in PBS for 5 minutes at room temperature on a shaker and incubated with fluorescently labeled secondary antibody (LI-COR, #926-32211) diluted 1:1000 in blocking buffer, and DRAQ5 nuclear stain (Biostatus Limited, #DRAQ5) diluted 1:10,000, at room temperature on a shaker for 1 hour. Cells were washed 5 times with 0.1% Tween-20 in PBS for 5 minutes at room temperature on a shaker and imaged on a LI-COR Odyssey imaging station. The raw data was normalized to DRAQ5 and the Her2 EC50 were calculated using XLfit.

The test system of data set [4] is Her2. The data set is described as follows: Fluorescent staining of Her2 on the surface of cells, FACS (BT474). It counts as cell-based, Human. The protocol:
After treatment with a compound of the invention, cells are washed twice with 1×PBS/1% FBS, and then stained with anti-Her2-FITC (#340553, BD) for 30 min at 4° C. Cells are then washed three times in FACS buffer before the fixation in 0.5 ml 1% paraformadehyde. Data is acquired on a FACSCalibur system. Isotype-matched controls are used to establish the non-specific staining of samples and to set the fluorescent markers. A total 10,000 events are recorded from each sample. Data are analyzed by using CellQuest software (BD Biosciences).
After treatment with a compound of the invention, cells are washed twice with 1×PBS/1% FBS, and then stained with anti-Her2-FITC (#340553, BD) for 30 min at 4° C. Cells are then washed three times in FACS buffer before the fixation in 0.5 ml 1% paraformadehydrede. Data is acquired on a FACSCalibur system. Isotype-matched controls are used to establish the non-specific staining of samples and to set the fluorescent markers. A total 10,000 events are recorded from each sample. Data are analyzed by using CellQuest software (BD Biosciences).

For `Cc1n[nH]c2cc(O)c(-c3nnc(C(N)=O)n3-c3ccc(N4CCOCC4)cc3)cc12` [Compound 2, 5-(6-hydroxy-3-methyl-1H-indazol-5-yl)-4-(4-morpholinophenyl)-4H-1,2,4-triazole-3-carboxamide], the concentration for half-maximal inhibition (IC50) (usually the point on the concentration scale where inhibition reaches its midpoint) in data set [1] stood at 500 nM.

For the molecule `Cc1n[nH]c2cc(O)c(-c3nnc(C(N)=O)n3-c3ccc4c(c3)OCO4)cc12` [Compound 4, 4-(benzo[d][1,3]dioxol-5-yl)-5-(6-hydroxy-3-methyl-1H-indazol-5-yl)-4H-1,2,4-triazole-3-carboxamide], it took 5000 nM to reach half-maximal inhibition in data set [1] (IC50).

`Cc1n[nH]c2cc(O)c(-c3nnc(C(=O)NC4CC4)n3-c3ccc(N4CCOCC4)cc3)cc12` [Compound 5, N-cyclopropyl-5-(6-hydroxy-3-methyl-1H-indazol-5-yl)-4-(4-morpholinophenyl)-4H-1,2,4-triazole-3-carboxamide] returned an IC50 in data set [1] of 100 nM.

The molecule `CCc1n[nH]c2cc(O)c(-c3nnc(C(N)=O)n3-c3ccc(N4CCOCC4)cc3)cc12` [Compound 6, 5-(3-ethyl-6-hydroxy-1H-indazol-5-yl)-4-(4-morpholinophenyl)-4H-1,2,4-triazole-3-carboxamide] displayed an IC50 in data set [1] of 20 nM.

For `CCCc1n[nH]c2cc(O)c(-c3nnc(C(=O)NC4CC4)n3-c3ccc(N4CCOCC4)cc3)cc12` [Compound 8, N-cyclopropyl-5-(6-hydroxy-3-propyl-1H-indazol-5-yl)-4-(4-morpholinophenyl)-4H-1,2,4-triazole-3-carboxamide], the half-inhibitory concentration (IC50) in data set [1] was 36 nM.

In turn, `CC(C)c1n[nH]c2cc(O)c(-c3nnc(C(N)=O)n3-c3ccc(N4CCOCC4)cc3)cc12` [Compound 9, 5-(6-hydroxy-3-isopropyl-1H-indazol-5-yl)-4-(4-morpholinophenyl)-4H-1,2,4-triazole-3-carboxamide] yielded an IC50 in data set [1] of 40 nM.

As to `CC(C)c1n[nH]c2cc(O)c(-c3nnc(C(=O)NC4CC4)n3-c3ccc(N4CCOCC4)cc3)cc12` [Compound 10, N-cyclopropyl-5-(6-hydroxy-3-isopropyl-1H-indazol-5-yl)-4-(4-morpholinophenyl)-4H-1,2,4-triazole-3-carboxamide], in data set [1], inhibition was half-maximal at 7 nM (IC50).

In the case of `CCc1n[nH]c2cc(O)c(-c3nnc(O)n3-c3ccc4c(ccn4C)c3)cc12` [Compound 29, 3-ethyl-5-(5-hydroxy-4-(1-methyl-1H-indol-5-yl)-4H-1,2,4-triazol-3-yl)-1H-indazol-6-ol], it took 200 nM to reach half-maximal inhibition in data set [1] (IC50).

`CCc1n[nH]c2cc(O)c(-c3nnc(SCc4cccnc4)n3-c3ccc(N4CCOCC4)cc3)cc12` [Compound 30, 3-ethyl-5-(4-(4-morpholinophenyl)-5-(pyridin-3-ylmethylthio)-4H-1,2,4-triazol-3-yl)-1H-indazol-6-ol]: in data set [1], the IC50 came out at 300 nM.

`CCc1n[nH]c2cc(O)c(-c3nnc(O)n3-c3cccc(N(C)C)c3)cc12` [Compound 31, 5-(4-(3-(dimethylamino)phenyl)-5-hydroxy-4H-1,2,4-triazol-3-yl)-3-ethyl-1H-indazol-6-ol] displayed an IC50 in data set [1] greater than 20000 nM.

`CCc1n[nH]c2cc(O)c(-c3nnc(O)n3-c3ccc(N4CCOCC4)cc3)cc12` [Compound 32, 3-ethyl-5-(5-hydroxy-4-(4-morpholinophenyl)-4H-1,2,4-triazol-3-yl)-1H-indazol-6-ol] showed an IC50 in data set [1] of 400 nM.

In the case of `CCc1n[nH]c2cc(O)c(-c3nnc(O)n3-c3ccc(N4CCOCC4)nc3)cc12` [Compound 33, 3-ethyl-5-(5-hydroxy-4-(6-morpholinopyridin-3-yl)-4H-1,2,4-triazol-3-yl)-1H-indazol-6-ol], the half-maximal inhibitory concentration (IC50) in data set [1] turned out to be 4000 nM.

Regarding `CCc1n[nH]c2cc(O)c(-c3nnc(O)n3-c3ccc4c(c3)CC(N3CCOCC3)C4)cc12` (stereo not shown) [Compound 35, 3-ethyl-5-(5-hydroxy-4-(2-morpholino-2,3-dihydro-1H-inden-5-yl)-4H-1,2,4-triazol-3-yl)-1H-indazol-6-ol], in data set [1], the IC50 was greater than 20000 nM.

Take `CCNC(=O)c1nnc(-c2cc3c(C(C)C)n[nH]c3cc2O)n1-c1ccc(CN2CCOCC2)cc1` [Compound 55, N-ethyl-5-(6-hydroxy-3-isopropyl-1H-indazol-5-yl)-4-(4-(morpholinomethyl)phenyl)-4H-1,2,4-triazole-3-carboxamide]: in data set [2] (IV 5 mg/Kg, DPD), the half-life was 102 min and the AUClast is on record as 2.52. In data set [2] (PO 25 mg/Kg, D5W), the half-life was 258 min and the AUClast turned out to be 24.4. Besides, the F in data set [2] is on record as 197%.

`CN1CCN(c2ccc(-n3c(O)nnc3-c3cc4c(C5CCC5)n[nH]c4cc3O)cc2)CC1` [Compound 70, 3-cyclobutyl-5-(5-hydroxy-4-(4-(4-methylpiperazin-1-yl)phenyl)-4H-1,2,4-triazol-3-yl)-1H-indazol-6-ol] came in with an IC50 in data set [1] greater than 1000 nM. Also, the EC50 (commonly the concentration at which the effect is half-maximal) in data set [3] is 300 nM; in data set [4], greater than 1000 nM.

With `Oc1cc2[nH]nc(C3CCCC3)c2cc1-c1nnc(O)n1-c1ccc(N2CCOCC2)cc1` [Compound 71, 3-cyclopentyl-5-(5-hydroxy-4-(4-morpholinophenyl)-4H-1,2,4-triazol-3-yl)-1H-indazol-6-ol], in data set [1], the midpoint of inhibition, the IC50, lay at 106 nM. Moreover, the results for the concentration giving a half-maximal response (EC50) in data set [3] and in data set [4] were 30 nM and 119 nM, respectively.

With `CC(C)c1n[nH]c2cc(O)c(-c3nnc(O)n3-c3ccc(N4CCN(C)CC4)cc3)cc12` [Compound 72, 5-(5-hydroxy-4-(4-(4-methylpiperazin-1-yl)phenyl)-4H-1,2,4-triazol-3-yl)-3-isopropyl-1H-indazol-6-ol], the half-life in data set [2] (IV 5 mg/Kg, DPD) is 66 min; in data set [2] (PO 25 mg/Kg, D5W) it was 126 min. For the same molecule, the AUClast in data set [2] (IV 5 mg/Kg, DPD) was 1.69; in data set [2] (PO 25 mg/Kg, D5W), 0.61. In addition, in data set [2], the F stood at 7.57%.

On to `Oc1cc2[nH]nc(C3CCCC3)c2cc1-c1nnc(O)n1-c1ccc(CN2CCOCC2)cc1` [Compound 78, 3-cyclopentyl-5-(5-hydroxy-4-(4-(morpholinomethyl)phenyl)-4H-1,2,4-triazol-3-yl)-1H-indazol-6-ol], for which, in data set [2] (IV 5 mg/Kg, DPD), the half-life is 90 min and the AUClast was 3.96. Moreover, in data set [2] (PO 25 mg/Kg, D5W), the half-life was 252 min and the AUClast amounted to 2.55. In addition, in data set [2], the F turned out to be 13%.

In data set [1], `CC(C)c1cc(-c2n[nH]c(=O)n2-c2ccc3c(ccn3C)c2)c(O)cc1O` [ganetespib, reference compound] yielded an IC50 of 4 nM. Besides, the half-maximal effective concentration (EC50) in data set [3] is 20 nM; in data set [4] it was 18 nM.
